Measured values: US20150296790A1, “SILICON-CONTAINING COMPOUND AQUEOUS SOLUTION AND ANTIBACTERIAL/ANTIVIRAL AGENT INCLUDING SAID SOLUTION” (JEX CO., LTD., priority 2012, published 2015)

Assay: Solubility of CD (clarity and stability, visual)
Format: physicochemical
Parameters: key to Solubility of CD: Stability: OK: When the aqueous CD solution did not exhibit the conditions such as presence of precipitates and deposits, the solution was considered as stable; NG: When the aqueous CD solution exhibited the conditions such as presence of precipitates and deposits, the solution was not considered as stable; key to Solubility of CD: Clarity: When the CD aqueous solution was clear, the solution was rated as “OK”; When the solution was not clear, the solution was rated as “NG”
Procedure: “Clarity” in “Solubility of CD” in the tables was determined by sequentially adding the CD and purified water at the respective ratio to a predetermined screw-cap bottle and stirring the mixture in the sealed bottle on a shaker to prepare the respective aqueous CD solution, which was then visually evaluated for clarity immediately after the preparation. When the CD aqueous solution was clear, the solution was rated as “OK”. When the solution was not clear, the solution was rated as “NG”. “Stability” in “Solubility of CD” in the tables was determined by allowing the respective aqueous CD solution after preparation to stand at ambient temperature for a predetermined period and then visually evaluating the conditions (such as presence of precipitates and deposits) of the solution.

[1] = Ratio of CD Alone 1 w/w % in purified water
[2] = Ratio of CD Alone 2-10 w/w % in purified water
[3] = Ratio of CD Alone 2 w/w % in purified water
[4] = Ratio of CD Alone 3 w/w % in purified water
[5] = Ratio of CD Alone 4-5 w/w % in purified water
[6] = Ratio of CD Alone 6 w/w % in purified water
[7] = Ratio of CD Alone 7-9 w/w % in purified water
[8] = Ratio of CD Alone 10 w/w % in purified water
[9] = Ratio of CD Alone 15 w/w % in purified water
[10] = Ratio of CD Alone 20 w/w % in purified water
[11] = Ratio of CD Alone 25 w/w % in purified water
[12] = Ratio of CD Alone 2-6 w/w % in purified water
[13] = Ratio of CD Alone 7 w/w % in purified water
[14] = Ratio of CD Alone 8-10 w/w % in purified water

OC[C@H]1O[C@@H]2O[C@H]3[C@H](O)[C@@H](O)[C@@H](O[C@H]4[C@H](O)[C@@H](O)[C@@H](O[C@H]5[C@H](O)[C@@H](O)[C@@H](O[C@H]6[C@H](O)[C@@H](O)[C@@H](O[C@H]7[C@H](O)[C@@H](O)[C@@H](O[C@H]8[C@H](O)[C@@H](O)[C@@H](O[C@H]1[C@H](O)[C@H]2O)O[C@@H]8CO)O[C@@H]7CO)O[C@@H]6CO)O[C@@H]5CO)O[C@@H]4CO)O[C@@H]3CO [β, β-cyclodextrin]
Solubility of CD: Clarity [1]: OK | Solubility of CD: Stability [1]: OK | Solubility of CD: Clarity [2]: NG | Solubility of CD: Stability [2]: NG

OC[C@H]1O[C@@H]2O[C@H]3[C@H](O)[C@@H](O)[C@@H](O[C@H]4[C@H](O)[C@@H](O)[C@@H](O[C@H]5[C@H](O)[C@@H](O)[C@@H](O[C@H]6[C@H](O)[C@@H](O)[C@@H](O[C@H]7[C@H](O)[C@@H](O)[C@@H](O[C@H]8[C@H](O)[C@@H](O)[C@@H](O[C@H]9[C@H](O)[C@@H](O)[C@@H](O[C@H]1[C@H](O)[C@H]2O)O[C@@H]9CO)O[C@@H]8CO)O[C@@H]7CO)O[C@@H]6CO)O[C@@H]5CO)O[C@@H]4CO)O[C@@H]3CO [γ, γ-cyclodextrin]
Solubility of CD: Clarity [1]: OK | Solubility of CD: Stability [1]: OK | Solubility of CD: Clarity [3]: OK | Solubility of CD: Stability [3]: OK | Solubility of CD: Clarity [4]: OK | Solubility of CD: Stability [4]: OK | Solubility of CD: Clarity [5]: OK | Solubility of CD: Stability [5]: OK | Solubility of CD: Clarity [6]: OK | Solubility of CD: Stability [6]: OK | Solubility of CD: Clarity [7]: OK | Solubility of CD: Stability [7]: OK | Solubility of CD: Clarity [8]: OK | Solubility of CD: Stability [8]: OK | Solubility of CD: Clarity [9]: NG | Solubility of CD: Stability [9]: OK | Solubility of CD: Clarity [10]: NG | Solubility of CD: Stability [10]: OK | Solubility of CD: Clarity [11]: NG | Solubility of CD: Stability [11]: NG

OC[C@H]1O[C@@H]2O[C@H]3[C@H](O)[C@@H](O)[C@@H](O[C@H]4[C@H](O)[C@@H](O)[C@@H](O[C@H]5[C@H](O)[C@@H](O)[C@@H](O[C@H]6[C@H](O)[C@@H](O)[C@@H](O[C@H]7[C@H](O)[C@@H](O)[C@@H](O[C@H]1[C@H](O)[C@H]2O)O[C@@H]7CO)O[C@@H]6CO)O[C@@H]5CO)O[C@@H]4CO)O[C@@H]3CO [α, α-cyclodextrin]
Solubility of CD: Clarity [1]: OK | Solubility of CD: Stability [1]: OK | Solubility of CD: Clarity [12]: OK | Solubility of CD: Stability [12]: OK | Solubility of CD: Clarity [13]: OK | Solubility of CD: Stability [13]: OK | Solubility of CD: Clarity [14]: NG | Solubility of CD: Stability [14]: NG
